Source: patent US10858365B2, “Triazolo-pyrimidine compounds and uses thereof” (Dizal (Jiangsu) Pharmaceutical Co., Ltd., priority 2018, dated 2020)
Read-outs that look alike come from different tables or passages of the source.

Columns and labels:
Assay type in all cases: cell-based
hA2a = hA2a (Homo sapiens (Human), UniProt P29274); assay: cAMP inhibition assay in hA2a/CHO cells; details: adenosine stimulation, read-out: cAMP & FLIPR IC50 (nM) hA2a
Experimental: (§1) hA2a/CHO, hA2b/CHO and mA2a/CHO (Genscript) were plated at 5×10^3 cells/well into 384-well polystyrene plates at the day of experiment. Compounds were pre-incubated with cells for 30 min at 37° C., 5% CO2. Then […] adenosine was added to the cells and incubated for 30 min at 37° C., 5% CO2. Detection reagent (CISBIO) was added and the plates were incubated for 60 min at room temperature. The signal was captured by Envision.
FLIPR™ and cAMP inhibition activities of exemplary compounds in different adenosine receptor over-expressing cell lines are shown in Table 4 below.

hA2b = hA2b (Homo sapiens (Human), UniProt P29275); assay: cAMP inhibition assay in hA2b/CHO cells; details: adenosine stimulation, read-out: cAMP & FLIPR IC50 (nM) hA2b
Experimental: as §1

mA2a = mA2a (Mus musculus (Mouse), UniProt Q60613); assay: cAMP inhibition assay in mA2a/CHO cells; details: adenosine stimulation, read-out: cAMP & FLIPR IC50 (nM) mA2a
Experimental: as §1

hA1 = hA1 (Homo sapiens (Human), UniProt P30542); assay: FLIPR inhibition assay in hADORA1/CHO (hA1 expressing) cells; details: FLIPR calcium, adenosine stimulation
Experimental: hADORA1/CHO (hA1 expressing) cells (Genscript) were plated at 1×10^4 cells/well into 384-well polystyrene plates one day before starting the experiment. On the day of experiment, the supernatant was discard and replaced with 40 µL of dye (FLIPR calcium 5 Assay Kit) per well and the plates were incubated for 60 mins at 37° C. plus 5% CO2. Then testing compounds were added at different concentrations for FLIPR™ inhibition assay. After a 400 s incubation with compound, […] adenosine was added into the cells, and the signal was captured by FLIPR.

[1] = hADORA1/CHO cells, read-out: cAMP & FLIPR IC50 (nM) hA1

Sequence of hA1 (P30542 whole entry): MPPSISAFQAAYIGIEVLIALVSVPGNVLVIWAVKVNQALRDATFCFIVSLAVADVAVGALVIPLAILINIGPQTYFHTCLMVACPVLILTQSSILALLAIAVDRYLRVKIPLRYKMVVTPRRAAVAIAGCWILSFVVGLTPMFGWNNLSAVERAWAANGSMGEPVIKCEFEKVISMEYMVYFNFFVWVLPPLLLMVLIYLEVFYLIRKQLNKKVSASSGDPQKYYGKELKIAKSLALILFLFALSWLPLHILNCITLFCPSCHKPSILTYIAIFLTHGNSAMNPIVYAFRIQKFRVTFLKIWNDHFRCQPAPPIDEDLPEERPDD
Sequence of hA2b (P29275 whole entry): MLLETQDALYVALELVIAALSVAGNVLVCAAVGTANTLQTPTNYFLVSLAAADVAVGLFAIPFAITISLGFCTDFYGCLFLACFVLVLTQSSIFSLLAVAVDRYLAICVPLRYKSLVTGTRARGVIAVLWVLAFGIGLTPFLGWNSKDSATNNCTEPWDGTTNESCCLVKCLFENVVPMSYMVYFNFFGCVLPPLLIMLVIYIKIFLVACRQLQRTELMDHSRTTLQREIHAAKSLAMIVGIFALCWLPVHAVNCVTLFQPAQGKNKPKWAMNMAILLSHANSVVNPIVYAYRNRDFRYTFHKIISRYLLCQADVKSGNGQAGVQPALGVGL
Sequence of hA2a (P29274 whole entry): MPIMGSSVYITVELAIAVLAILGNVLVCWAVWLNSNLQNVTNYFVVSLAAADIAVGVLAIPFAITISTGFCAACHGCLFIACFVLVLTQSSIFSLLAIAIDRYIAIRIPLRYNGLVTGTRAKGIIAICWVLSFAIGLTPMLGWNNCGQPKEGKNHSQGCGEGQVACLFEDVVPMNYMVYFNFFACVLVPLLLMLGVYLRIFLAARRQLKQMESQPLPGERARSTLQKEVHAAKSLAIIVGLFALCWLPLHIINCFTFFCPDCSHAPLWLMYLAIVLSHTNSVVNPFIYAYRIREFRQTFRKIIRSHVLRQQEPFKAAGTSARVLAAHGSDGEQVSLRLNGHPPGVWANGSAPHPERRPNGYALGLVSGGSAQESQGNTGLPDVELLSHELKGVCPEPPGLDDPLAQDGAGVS
Sequence of mA2a (Q60613 whole entry): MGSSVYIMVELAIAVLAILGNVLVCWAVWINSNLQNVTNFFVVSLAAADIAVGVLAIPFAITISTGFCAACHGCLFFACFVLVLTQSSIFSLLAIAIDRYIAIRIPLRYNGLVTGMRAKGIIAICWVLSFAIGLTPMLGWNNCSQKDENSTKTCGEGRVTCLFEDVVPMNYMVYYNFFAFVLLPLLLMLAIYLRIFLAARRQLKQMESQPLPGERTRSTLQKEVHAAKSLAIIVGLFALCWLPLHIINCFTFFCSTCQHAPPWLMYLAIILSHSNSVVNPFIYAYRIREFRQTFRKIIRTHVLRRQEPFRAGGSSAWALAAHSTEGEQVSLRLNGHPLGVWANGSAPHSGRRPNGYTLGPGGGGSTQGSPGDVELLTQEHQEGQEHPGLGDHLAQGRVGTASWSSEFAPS

| Compound | IC50 (hA2a) | IC50 (hA2b) | IC50 (mA2a) | IC50 (hA1; [1]) | IC50 (hA1; cAMP & FLIPR IC50 (nM) hA1, hADORA1/CHO cells) |
| --- | --- | --- | --- | --- | --- |
| Cc1cnc2ccc(-c3c(N4CCC4)nc(N)n4nc(Cc5c(F)cccc5F)nc34)cn12 [Example 124, 7-(azetidin-l-yl)-2-(2,6-difluorobenzyl)-8-(3-methylimidazo[1,2-a]pyridin-6-yl)-[1,2,4]triazolo [1,5-c]pyrimidin-5-amine] | 0.1 nM | 23.3 nM | 3.9 nM | 16 nM | – |
| Cc1cnc2ccc(-c3c(N4CCCC4)nc(N)n4nc(Cc5ncccc5F)nc34)cn12 [Example 101, 2-((3*fluoropyridin-2-yl)methyl)-8-(3-methylimidazo[1,2-a]pyridin-6-yl)-7-(pyrrolidin-1-yl)-[1,2, 4]triazolo[l,5-c]pyrimidin-5-amine] | 8.2 nM | 203 nM | 58.1 nM | 6.6 nM | – |
| Cn1cc(-c2c(-c3nccs3)nc(N)n3nc(Cc4c(F)cccc4F)nc23)ccc1=O [Example 44, 5-(5-amino-2-(2,6-difluorobenzyl)-7-(thiazol-2-yl)-[1,2,4]triazolo[1,5-c]pyrimidin-8-yl)-l-methyl pyridin-2(lH)-one] | 4.3 nM | 97 nM | 5.9 nM | 13 nM | – |
| Cc1cnc2ccc(-c3c(N4CCOCC4)nc(N)n4nc(Cc5ncccc5F)nc34)cn12 [Example 102, 2-((3-fluoropyridin-2-yl)methyl)-8-(3-methylimidazo[l,2-a]pyridin-6-yl)-7-morpholino-[l,2,4]tri azolo[1,5-c]pyrimidin-5-amine] | 2.6 nM | 121 nM | 11.2 nM | 27.2 nM | – |
| Nc1nc(-c2ccc(F)cc2)c(-c2ccc3nncn3c2)c2nc(Cc3ncccc3F)nn12 [Example 72, 8-([1,2,4]triazolo[4,3-a]pyridin-6-yl)-7-(4-fluorophenyl)-2-((3-fluoropyridin-2-yl)methyl)-[1,2,4]triazolo[1,5-c]pyrimidin-5-amine] | 37 nM | 1050 nM | 107 nM | 9.7 nM | – |
| Nc1nc(-c2ccc(F)cc2)c(-c2ccc3nccn3c2)c2nc(Cc3ncccc3OC(F)F)nn12 [Example 73] | 0.1 nM | 4.8 nM | 0.4 nM | – | 11 nM |
| COC1CN(c2nc(N)n3nc(Cc4c(F)cccc4F)nc3c2-c2ccc3ncc(C)n3c2)C1 [Example 109, 2-(2,6-difluorobenzyl)-7-(3-methoxyazetidin-l-yl)-8-(3-methylimidazo[l,2-a]pyridin-6-yl)-[l,2,4] triazolo[1,5-c]pyrimidin-5-amine] | 3.5 nM | – | – | 30.6 nM | – |
| Cc1cnc2ccc(-c3c(N4CCOCC4C)nc(N)n4nc(Cc5ncccc5F)nc34)cn12 (single isomer, unassigned; isomer 2) [Example 113-2, 2-((3-fluoropyridin-2-yl)methyl)-8-(3-methylimidazo[1,2-a]pyridin-6-yl)-7-(3-methylmorpholino)-[1,2,4]triazolo[1,5-c]pyrimidin-5-amine (isomer 2)] | 73 nM | – | – | > 10000 nM | – |
| Cc1cnc2ccc(-c3c(N4CC5(COC5)C4)nc(N)n4nc(Cc5ncccc5F)nc34)cn12 [Example 118, 2-((3-fluoropyridin-2-yl)methyl)-8-(3-methylimidazo[l,2-a]pyridin-6-yl)-7-(2-oxa-6-azaspiro[3.3)heptan-6-yl)-[l,2,4]triazolo[l,5-c]pyrimidin-5-a mine] | 228 nM | – | – | > 8090 nM | – |
| Cc1cnc2ccc(-c3c(N4CCN(C)CC4)nc(N)n4nc(Cc5c(F)cccc5F)nc34)cn12 [Example 108, 2-(2,6-difluorobenzyl)-8-(3-methylimidazo[1,2-a]pyridin-6-yl)-7-{4-methylpiperazin-l-yl)-[1,2,4] triazolo[1,5-c]pyrimidin-5-amine] | 42.3 nM | – | – | 131 nM | – |
| CN1CCC[C@@H]1Cc1nc2c(-c3ccc4ncn(C)c4c3)c(-c3ccc(F)cc3)nc(N)n2n1 [Example 104, (R)-7-(4-fluorophenyl)-8-(1-methyl-1H-benzo[d]imidazol-6-yl)-2-((1-methylpyrrolidin-2-yl)methyl)-[1,2,4]triazolo[1,5-c]pyrimidin-5-amine] | 1 nM | – | 5.7 nM | 34.1 nM | – |
| Cn1cc(-c2c(-c3ncco3)nc(N)n3nc(Cc4ncccc4OC(F)F)nc23)ccc1=O [Example 71, 5-(5-amino-2-[[3-(difluoromethoxy)pyridin-2-yl]methyl]-7-(1,3-oxazol-2-yl)-[1,2,4]triazolo[1,5-c]pyrimidin-8-yl)-1-methyl-1,2-dihydropyridin-2-one] | 11 nM | 102 nM | – | 8.9 nM | – |
| Cc1cnc2ccc(-c3c(-c4ccc(F)cc4)nc(N)n4nc(CC5CCOC5)nc34)cn12 (single isomer, unassigned; isomer 2) [Example 105-2, 7-(4-fluorophenyl)-8-(3-methylimidazo[l,2-a]pyridin-6-yl)-2-((tetrahydrofuran-3-yl)methyl)-[1,2, 4]triazolo[1,5-c]pyrimidin-5-amine(isomer 2)] | – | 71.6 nM | – | 11.8 nM | – |
| Cc1cnc2ccc(-c3c(N4CCOC(C)C4)nc(N)n4nc(Cc5ncccc5F)nc34)cn12 (single isomer, unassigned; isomer 2) [Example 112-2, 2-((3-fluoropyridin-2-yl)methyl)-8-(3-methylimidazo[l,2-a]pyridin-6-yl)-7-(2-methylmorpholino)-[1,2,4]triazolo[1,5-c]pyrimidin-5-amine (isomer 2)] | 3.2 nM | – | – | 120 nM | – |
| Cc1cnc2ccc(-c3c(N4CCC4)nc(N)n4nc(Cc5ncccc5F)nc34)cn12 [Example 119, 7-(azetidin-l-yl)-2-((3-fluoropyridin-2-yl)methyl)-8-(3-methylimidazo[1,2-a]pyridin-6-yl)-[1,2,4] triazolo[1,5-c]pyrimidin-5-amine] | 1.9 nM | – | – | 48.6 nM | – |
| COCCc1nc2c(-c3ccc4ncc(C)n4c3)c(-c3ncco3)nc(N)n2n1 [Example 126, 2-(2-methoxyethyl)-8-(3-methylimidazo[l,2-a]pyridin-6-yl)-7-(oxazol-2-yl)-[1,2,4]triazolo[1,5-c]pyrimidin-5-amine] | 1.1 nM | – | – | 83.6 nM | – |
| Cc1cnc2ccc(-c3c(N4CCOC[C@@H]4C)nc(N)n4nc(Cc5ncccc5F)nc34)cn12 (single isomer, unassigned; isomer 1) [Example 113-1, 2-((3-fluoropyridin-2-yl)methyl)-8-(3-methylimidazo[l,2-a]pyridin-6-yl)-7-(3-methylmorpholino)-[1,2,4]triazolo[1,5-c]pyrimidin-5-amine (isomer 1)] | 42.4 nM | – | – | 3270 nM | – |
| Cc1cnc2ccc(-c3c(-c4ncco4)nc(N)n4nc(CC5CCCO5)nc34)cn12 (single isomer, unassigned) [Example 106-2, 8-(3-methylimidazo[1,2-a]pyridin-6-yl)-7-(oxazol-2-yl)-2-((tetrahydrofuran-2-yl)methyl)-[1,2,4]triazolo[1,5-f]pyrimidin-5-amine] | 0.2 nM | – | – | 34.9 nM | – |
| Cc1cnc2ccc(-c3c(-c4ccc(F)cc4)nc(N)n4nc(C[C@H]5CCCN5C)nc34)cn12 [Example 125, (R)-7-(4-fluorophenyl)-8-(3-methylimidazo[l,2-a]pyrdin-6-yl)-2-((1-methylpyrrolidin-2-yl)methyl)-[l,2,4]triazolo[l,5-c]pyrimidin-5-amine] | 0.4 nM | – | – | 34.1 nM | – |
| Cc1cnc2ccc(-c3c(N4CCOC(C)C4)nc(N)n4nc(Cc5ncccc5F)nc34)cn12 (single isomer, unassigned; isomer 1) [Example 112-1, 2-((3-fluoropyridin-2-yl)methyl)-8-(3-methylimidazo[l,2-a]pyridin-6-yl)-7-(2-methylmorpholino)-[1,2,4]triazolo[1,5-c]pyrimidin-5-amine (isomer 1)] | 91.6 nM | – | – | 966 nM | – |
| CN1CCC[C@H]1Cc1nc2c(-c3ccc4ncn(C)c4c3)c(-c3ccc(F)cc3)nc(N)n2n1 [Example 103, (S)-7-(4-fluorophenyl)-8-(1-methyl-1H-benzo[d]imidazol-6-yl)-2-((1-methylpyrrolidin-2-yl)methyl)-[1,2,4]triazolo[1,5-c]pyrimidin-5-amine] | 8.3 nM | – | 30.3 nM | 264 nM | – |
| Cc1cnc2ccc(-c3c(-c4ncco4)nc(N)n4nc(CC5CCCO5)nc34)cn12 (single isomer, unassigned) [Example 106-1, 8-(3-methylimidazo[1,2-a]pyridin-6-yl)-7-(oxazol-2-yl)-2-((tetrahydrofuran-2-yl)methyl)-[1,2,4]triazolo[1,5-f]pyrimidin-5-amine] | 0.5 nM | – | – | 53.2 nM | – |
| COc1cc(-c2c(-c3ccc(F)cc3)nc(N)n3nc(Cc4c(F)cccc4F)nc23)ccn1 [Example 5, 2-(2,6-difluorobenzyl)-7-(4-fluorophenyl)-8-(2-methoxypyridin-4-yl)-[1,2,4]lriazolo[1,5-c] pyrimidin-5-amine] | 1.9 nM | – | 1.5 nM | – | – |
